How the values were obtained:
[1] = biological target: T1, human recombinant CBL-b (human Biotin CBL-b recombinant protein a.a. 39-426) (Homo sapiens, UniProt Q13191); assay: Biochemical assay for CBL-b inhibition (ligand displacement TR-FRET); type: binding; settings: 50 nM CBL-b, 0.3 μM Bodipy FL-Probe, read-out: IC50 (CBL-b inhibition, group)
T1 construct: human Biotin CBL-b recombinant protein a.a; 39-426; Biotin (biotinylated); made in house
Procedure, shortened: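 Ligand-displacement TR-FRET: 0.3 μM Bodipy FL probe competes with compound for 50 nM biotin-CBL-b (aa 39-426) after a 60 min RT compound pre-incubation; terbium-streptavidin detection, 60 min each step. Dose-response sigmoidal fitting gave IC50 and % maximum inhibition.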

[2] = system: NFAT signaling pathway in Jurkat NFAT reporter cells; assay: Jurkat NFAT reporter assay; type: cell-based; settings: Homo sapiens, 30 min with compound, then soluble anti-human CD3/CD28 antibody for 6 hours, luciferase readout, read-out: EC50 (Group)
Description: A human T lymphocyte Jurkat reporter cell line was further used to assess activation of the nuclear factor of activated T-cells (NFAT) signaling pathway by Cbl-b inhibitors. The reporter cell line is a genetically engineered Jurkat T cell line that expresses a luciferase reporter driven by an NFAT-response element (NFAT-RE). The Cbl-b inhibitor was incubated with 1×10^5 Jurkat NFAT reporter cells per well for 30 minutes. Subsequently, cells were stimulated with soluble anti-human CD3/CD28 antibody for 6 hours resulting in NFAT-RE-mediated luminescence. The bioluminescent signal is detected and quantified using Bio-Glo™ Luciferase Assay System. Readouts were reported as fold change over baseline. Here, baseline was the measurement obtained from Jurkat NFAT reporter cells stimulated with anti-CD3 antibody and anti-CD28 antibody, where the cells were not incubated with a Cbl-b inhibitor.

T1 sequence (Q13191 39-426): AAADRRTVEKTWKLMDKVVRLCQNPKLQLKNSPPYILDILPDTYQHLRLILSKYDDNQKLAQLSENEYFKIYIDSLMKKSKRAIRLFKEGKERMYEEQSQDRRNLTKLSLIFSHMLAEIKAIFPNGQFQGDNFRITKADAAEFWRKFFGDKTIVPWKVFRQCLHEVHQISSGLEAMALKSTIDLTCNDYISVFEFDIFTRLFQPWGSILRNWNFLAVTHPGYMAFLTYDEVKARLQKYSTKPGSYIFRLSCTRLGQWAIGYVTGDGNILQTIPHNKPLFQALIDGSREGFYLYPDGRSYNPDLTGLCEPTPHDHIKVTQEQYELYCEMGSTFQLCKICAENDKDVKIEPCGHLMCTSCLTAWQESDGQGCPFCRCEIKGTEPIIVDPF

Row | SMILES | IC50 [1] [µM] | EC50 [2] [µM]
1 | C[C@@H]1CN(Cc2cc(N3Cc4ccc(C5(Cc6nncn6C)COC5)cc4C3=O)nc(C(F)(F)F)c2)CCO1 [Compound 46, (R)-6-(3-((4-Methyl-4H-1,2,4-triazol-3-yl)methyl)oxetan-3-yl)-2-(4-((2-methyl-morpholino)methyl)-6-(trifluoromethyl)pyridin-2-yl)isoindolin-1-one] | 0.3 to 5 | 1 to 10
2 | C[C@H]1CCCN(Cc2cc(Cl)nc(N3Cc4ccc(-c5ccc(Cl)cc5-c5nncn5C)cc4C3=O)c2)C1 [Compound 113, (S)-6-(4-Chloro-2-(4-methyl-4H-1,2,4-triazol-3-yl)phenyl)-2-(6-chloro-4-((3-methylpiperidin-1-yl)methyl)pyridin-2-yl)isoindolin-1-one] | < 0.08 | < 0.3
3 | C[C@H](NCc1cscn1)c1cc(Cl)nc(N2Cc3ccc(C4(Cc5nncn5C)COC4)cc3C2=O)c1 (single isomer, unassigned) [Compound 218] | < 0.08 | 0.3 to 1
4 | Cc1cc(CNC(C)C2CC2)cc(N2Cc3ccc(-c4ccc(Cl)cc4-c4nncn4C)cc3C2=O)n1 (stereo not shown) [Compound 122, 6-(4-Chloro-2-(4-methyl-4H-1,2,4-triazol-3-yl)phenyl)-2-(4-(((1-cyclopropyl-ethyl)amino)methyl)-6-methylpyridin-2-yl)isoindolin-1-one] | < 0.08 | < 0.3
5 | Cn1cnnc1CC1(c2ccc3c(c2)C(=O)N(c2cc(CN4CCCC(F)C4)cc(C(F)(F)F)n2)C3)COC1 (stereo not shown) [Compound 33, 2-(4-((3-Fluoropiperidin-1-yl)methyl)-6-(trifluoromethyl)pyridin-2-yl)-6-(3-((4-methyl-4H-1,2,4-triazol-3-yl)methyl)oxetan-3-yl)isoindolin-1-one] | 0.3 to 5 | 1 to 10
6 | Cc1cc(CNCC(C)(C)C)cc(N2Cc3ccc(-c4ccc(F)cc4-c4nncn4C)cc3C2=O)n1 [Compound 303] | < 0.08 | 0.3 to 1
7 | Cn1cnnc1CC1(c2ccc3c(c2)C(=O)N(c2cc(CNCC4CC(F)(F)C4)cc(Cl)n2)C3)CC(C#N)C1 (stereo not shown) [Compound 227, 3-(2-(6-Chloro-4-((((3,3-difluorocyclobutyl)methyl)amino)methyl)pyridin-2-yl)-3-oxoisoindolin-5-yl)-3-((4-methyl-4H-1,2,4-triazol-3-yl)methyl)cyclobutane-1-carbo-nitrile] | < 0.08 | 0.3 to 1
8 | C[C@@H](NCc1cc(Cl)nc(N2Cc3ccc(C4(Cc5nncn5C)COC4)cc3C2=O)c1)C1CC1 (single isomer, unassigned) [Compound 224] | < 0.08 | 0.3 to 1
9 | C[C@@H](Cc1nncn1C)c1ccc2c(c1)C(=O)N(c1cc(CNCCC(F)(F)F)cc(Cl)n1)C2 (single isomer, unassigned) [Compound 163] | < 0.08 | 0.3 to 1
10 | C[C@H](NCc1cc(Cl)nc(N2Cc3ccc(C4(Cc5nncn5C)COC4)cc3C2=O)c1)C1CC1 (single isomer, unassigned) [Compound 223] | < 0.08 | < 0.3
11 | C[C@H](NC1CCCC1)c1cc(Cl)nc(N2Cc3ccc(-c4ccc(Cl)cc4-c4nncn4C)cc3C2=O)c1 (single isomer, unassigned) [Compound 105, 6-(4-Chloro-2-(4-methyl-4H-1,2,4-triazol-3-yl)phenyl)-2-(6-chloro-4-(1-(cyclo-pentylamino)ethyl)pyridin-2-yl)isoindolin-1-one] | < 0.08 | < 0.3
12 | Cn1cnnc1CC1(c2ccc3c(c2)C(=O)N(c2cc(CNCC4(O)CCC4)cc(Cl)n2)C3)COC1 [Compound 216] | < 0.08 | 1 to 10
13 | Cn1cnnc1CC1(c2ccc3c(c2)C(=O)N(c2cc(CNCC4CCC4)cc(Cl)n2)C3)CCC1 [Compound 168] | < 0.08 | < 0.3
14 | Cn1cnnc1C[C@]1(c2ccc3c(c2)C(=O)N(c2cc(CNCC4CCC4)cc(Cl)n2)C3)C[C@H](C#N)C1 (single isomer, unassigned) [Compound 244, (1r,3r)-3-(2-(6-Chloro-4-(((cyclobutylmethyl)amino)methyl)pyridin-2-yl)-3-oxoisoindolin-5-yl)-3-((4-methyl-4H-1,2,4-triazol-3-yl)methyl)cyclobutane-1-carbonitrile] | < 0.08 | < 0.3
15 | C=Cc1cc(CN2CCC[C@H](C)C2)cc(N2Cc3ccc(C4(Cc5nncn5C)COC4)cc3C2=O)c1 [Compound 9, (S)-6-(3-((4-Methyl-4H-1,2,4-triazol-3-yl)methyl)oxetan-3-yl)-2-(3-((3-methyl-piperidin-1-yl)methyl)-5-vinylphenyl)isoindolin-1-one] | 0.08 to 0.3 | 0.3 to 1
16 | C[C@H](Cc1nncn1C)c1ccc2c(c1)C(=O)N(c1cc(CNCCC(F)(F)F)cc(Cl)n1)C2 (single isomer, unassigned) [Compound 164] | < 0.08 | 1 to 10
17 | Cn1cnnc1CC1(c2ccc3c(c2)C(=O)N(c2cc(CNCC4CC4)cc(C(F)(F)F)c2)C3)COC1 [Compound 13, 2-(3-(((Cyclopropylmethyl)amino)methyl)-5-(trifluoromethyl)phenyl)-6-(3-((4-methyl-4H-1,2,4-triazol-3-yl)methyl)oxetan-3-yl)isoindolin-1-one] | 0.08 to 0.3 | 1 to 10

Now from value to compound:

Row | IC50 [1] [µM] | EC50 [2] [µM] | SMILES
18 | < 0.08 | < 0.3 | C[C@@H](NC[C@@H]1CCCO1)c1cc(Cl)nc(N2Cc3ccc(C4(Cc5nncn5C)COC4)cc3C2=O)c1 (single isomer, unassigned) [Compound 219]
19 | < 0.08 | 0.3 to 1 | C[C@H]1C[C@H](C)CN(Cc2cc(N3Cc4ccc(C5(Cc6nncn6C)COC5)cc4C3=O)nc(C(F)(F)F)c2)C1 [Compound 42, 2-(4-(((3S,5S)-3,5-Dimethylpiperidin-1-yl)methyl)-6-(trifluoromethyl)pyridin-2-yl)-6-(3-((4-methyl-4H-1,2,4-triazol-3-yl)methyl)oxetan-3-yl)isoindolin-1-one]
20 | 0.08 to 0.3 | 0.3 to 1 | CC1CN(Cc2cc(N3Cc4ccc(C5(Cc6nncn6C)COC5)cc4C3=O)nc(C(F)(F)F)c2)CCC1(F)F (stereo not shown) [Compound 28, 2-(4-((4,4-Difluoro-3-methylpiperidin-1-yl)methyl)-6-(trifluoromethyl)pyridin-2-yl)-6-(3-((4-methyl-4H-1,2,4-triazol-3-yl)methyl)oxetan-3-yl)isoindolin-1-one]
21 | < 0.08 | 1 to 10 | Cc1nc(N2Cc3ccc(-c4ccc(F)cc4-c4nncn4C)cc3C2=O)cc(CNCC2CC2)c1F [Compound 261, 2-(4-(((Cyclopropylmethyl)amino)methyl)-5-fluoro-6-methylpyridin-2-yl)-6-(4-fluoro-2-(4-methyl-4H-1,2,4-triazol-3-yl)phenyl)isoindolin-1-one]
22 | < 0.08 | 1 to 10 | Cc1nc(N2Cc3ccc(-c4ccc(F)cc4-c4nncn4C)cc3C2=O)cc(CNCC2CC2)c1C(F)(F)F [Compound 337, 2-(4-(((Cyclopropylmethyl)amino)methyl)-6-methyl-5-(trifluoromethyl)-pyridin-2-yl)-6-(4-fluoro-2-(4-methyl-4H-1,2,4-triazol-3-yl)phenyl)isoindolin-1-one]
23 | < 0.08 | < 0.3 | CC(NCc1cscn1)c1cc(Cl)nc(N2Cc3ccc(C4(Cc5nncn5C)COC4)cc3C2=O)c1 (stereo not shown) [Compound 205]
24 | 0.3 to 5 | 1 to 10 | Cn1cnnc1CC1(c2ccc3c(c2)C(=O)N(c2cc(CN4CC5(CCC5)C4)cc(C(F)(F)F)n2)C3)COC1 [Compound 51, 2-(4-((2-Azaspiro[3.3]heptan-2-yl)methyl)-6-(trifluoromethyl)pyridin-2-yl)-6-(3-((4-methyl-4H-1,2,4-triazol-3-yl)methyl)oxetan-3-yl)isoindolin-1-one]
25 | < 0.08 | < 0.3 | Cc1cc(CNCC2CC2)cc(N2Cc3ccc(-c4c(F)cc(F)cc4-c4nncn4C)cc3C2=O)n1 [Compound 262]
26 | < 0.08 | < 0.3 | CC(NCC1CC1(F)F)c1cc(Cl)nc(N2Cc3ccc(C4(Cc5nncn5C)COC4)cc3C2=O)c1 (stereo not shown) [Compound 199, 2-(6-Chloro-4-(1-(((2,2-difluorocyclopropyl)methyl)amino)ethyl)pyridin-2-yl)-6-(3-((4-methyl-4H-1,2,4-triazol-3-yl)methyl)oxetan-3-yl)isoindolin-1-one]
27 | < 0.08 | < 0.3 | C[C@H]1CCCN(Cc2cc(Cl)nc(N3Cc4ccc(C5(Cc6nncn6C)CC(C#N)C5)cc4C3=O)c2)C1 (stereo partly shown) [Compound 85]
28 | 0.08 to 0.3 | 0.3 to 1 | C[C@@H]1CCN(Cc2cc(Cl)nc(N3Cc4ccc(C5(Cc6nncn6C)COC5)cc4C3=O)c2)C1 [Compound 68, (R)-2-(6-Chloro-4-((3-methylpyrrolidin-1-yl)methyl)pyridin-2-yl)-6-(3-((4-methyl-4H-1,2,4-triazol-3-yl)methyl)oxetan-3-yl)isoindolin-1-one]
29 | < 0.08 | 1 to 10 | Cn1cnnc1CC1(c2ccc3c(c2)C(=O)N(c2cc(CNCc4cscn4)cc(Cl)n2)C3)COC1 [Compound 189]
